In US20120121591A1 (priority 2009, published 2012):
Like-named read-outs stand apart in the source and are kept apart here.

Tests used:
Format in all cases: cell-based
[1] = tested on: IFN-g secretion from T cells in human whole blood
[2] = target: hKv1.3 (Homo sapiens, UniProt P22001); assay: cell-based; conditions: Kv1.3 (IWQ) IC50 (nM, Avg)
[3] = tested on: IL-2 secretion from T cells in human whole blood; conditions: read-out: WB (IL-2) IC50 (nM, Avg)
[4] = read-out: WB (IFNg) IC50 (nM, Avg)

Chain of hKv1.3 (P22001 whole entry): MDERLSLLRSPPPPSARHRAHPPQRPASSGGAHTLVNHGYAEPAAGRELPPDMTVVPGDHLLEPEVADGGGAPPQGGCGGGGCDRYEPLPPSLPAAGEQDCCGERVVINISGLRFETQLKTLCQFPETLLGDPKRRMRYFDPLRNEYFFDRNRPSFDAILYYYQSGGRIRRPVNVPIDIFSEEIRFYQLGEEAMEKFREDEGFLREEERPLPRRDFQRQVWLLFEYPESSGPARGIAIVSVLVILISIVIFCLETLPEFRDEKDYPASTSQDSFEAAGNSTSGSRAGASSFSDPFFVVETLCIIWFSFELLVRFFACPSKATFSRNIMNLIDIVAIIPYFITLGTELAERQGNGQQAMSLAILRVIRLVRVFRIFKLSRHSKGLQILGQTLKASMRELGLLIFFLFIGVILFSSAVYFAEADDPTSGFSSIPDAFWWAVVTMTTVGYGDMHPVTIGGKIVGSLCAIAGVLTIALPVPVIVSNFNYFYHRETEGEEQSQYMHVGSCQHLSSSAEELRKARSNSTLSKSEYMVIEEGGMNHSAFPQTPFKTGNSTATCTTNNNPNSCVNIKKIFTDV

## CC[C@H](C)[C@@H]1NC(=O)[C@@H](NC(=O)[C@H](CO)NC(=O)[C@@H](N)CCCNC(=N)N)CSSC[C@@H](C(=O)O)NC(=O)[C@H]([C@@H](C)O)NC(=O)CNC(=O)[C@@H]2CSSC[C@@H]3NC(=O)[C@H](CCC(N)=O)NC(=O)[C@H](Cc4ccccc4)NC(=O)[C@H](C)NC(=O)[C@H]([C@@H](C)O)NC(=O)[C@H](CSSC[C@H](NC(=O)[C@H](Cc4ccccc4)NC(=O)[C@H](CO)NC(=O)[C@H](CC(C)C)NC(=O)[C@H](CCCNC(=N)N)NC(=O)[C@H](Cc4ccc(O)cc4)NC(=O)[C@H](CCCCN)NC(=O)[C@H](CCSC)NC(=O)[C@H](CO)NC(=O)[C@H](CCCCN)NC(=O)[C@H](CCCCN)NC3=O)C(=O)N[C@@H](CCCNC(=N)N)C(=O)N[C@@H](CCCCN)C(=O)N[C@@H]([C@@H](C)O)C(=O)N2)NC(=O)[C@H](CCCNC(=N)N)NC(=O)[C@H](CO)NC(=O)[C@H](CCCCN)NC(=O)[C@@H]2CCCN2C(=O)[C@H]([C@@H](C)CC)NC(=O)[C@H]([C@@H](C)O)NC(=O)[C@H](CC(=O)O)NC1=O [[Lys19]ShK]
[1]; [4]
  IC50: 0.089 nM
[2]
  IC50: 0.189 nM
[3]
  IC50: 0.041 nM

## CC[C@H](C)[C@@H]1NC(=O)[C@@H](NC(=O)[C@H](CO)NC(=O)[C@@H](N)CCCNC(=N)N)CSSC[C@@H](C(N)=O)NC(=O)[C@H]([C@@H](C)O)NC(=O)CNC(=O)[C@@H]2CSSC[C@@H]3NC(=O)[C@H](CCCCN)NC(=O)[C@H](Cc4ccccc4)NC(=O)[C@H](C)NC(=O)[C@H]([C@@H](C)O)NC(=O)[C@H](CSSC[C@H](NC(=O)[C@H](Cc4ccccc4)NC(=O)[C@H](CO)NC(=O)[C@H](CC(C)C)NC(=O)[C@H](CCCNC(=N)N)NC(=O)[C@H](Cc4ccc(O)cc4)NC(=O)[C@H](CCCCN)NC(=O)[C@H](CCC(N)=O)NC(=O)[C@H](CO)NC(=O)[C@H](Cc4c[nH]cn4)NC(=O)[C@H](CCCCN)NC3=O)C(=O)N[C@@H](CCCNC(=N)N)C(=O)N[C@@H](CCCCN)C(=O)N[C@@H]([C@@H](C)O)C(=O)N2)NC(=O)[C@H](CCCNC(=N)N)NC(=O)[C@H](CO)NC(=O)[C@H](CCCCN)NC(=O)[C@@H]2CCCN2C(=O)[C@H]([C@@H](C)CC)NC(=O)[C@H]([C@@H](C)O)NC(=O)[C@H](CC(=O)O)NC1=O [[Lys16, Gln21]ShK-amide]
[1]; [4]
  IC50: 0.812 nM
[2]
  IC50: 0.161 nM
[3]
  IC50: 0.42 nM

## CC[C@H](C)[C@@H]1NC(=O)[C@@H](NC(=O)[C@H](CO)NC(=O)[C@@H](N)CCCNC(=N)N)CSSC[C@@H](C(=O)O)NC(=O)[C@H]([C@@H](C)O)NC(=O)CNC(=O)[C@@H]2CSSC[C@@H]3NC(=O)[C@H](CCC(N)=O)NC(=O)[C@H](Cc4ccccc4)NC(=O)[C@H](C)NC(=O)[C@H]([C@@H](C)O)NC(=O)[C@H](CSSC[C@H](NC(=O)[C@H](Cc4ccccc4)NC(=O)[C@H](CO)NC(=O)[C@H](CC(C)C)NC(=O)[C@H](CCCNC(=N)N)NC(=O)[C@H](Cc4ccc(O)cc4)NC(=O)[C@H](CCCCN)NC(=O)[C@H](CCSC)NC(=O)[C@H](CO)NC(=O)[C@H](Cc4c[nH]cn4)NC(=O)[C@H](CCCCN)NC3=O)C(=O)N[C@@H](CCCNC(=N)N)C(=O)N[C@@H](CCCCN)C(=O)N[C@@H]([C@@H](C)O)C(=O)N2)NC(=O)[C@H](CCCNC(=N)N)NC(=O)[C@H](CO)NC(=O)[C@H](CCCCN)NC(=O)[C@@H]2CCCN2C(=O)[C@H]([C@@H](C)CC)NC(=O)[C@H](CCC(=O)O)NC(=O)[C@H](CC(=O)O)NC1=O [[Glu6]ShK]
[1]; read-out: WB (IFNg) IC5- (nM, Avg)
  IC50: 0.109 nM
[2]
  IC50: 0.17 nM
[3]
  IC50: 0.073 nM

## CCCC[C@@H]1NC(=O)[C@H](CO)NC(=O)[C@H](Cc2c[nH]cn2)NC(=O)[C@H](CCCCN)NC(=O)[C@@H]2CSSC[C@@H]3NC(=O)[C@H]([C@@H](C)O)NC(=O)[C@H](CCCCN)NC(=O)[C@H](CCCNC(=N)N)NC(=O)[C@H](CSSC[C@H](NC(=O)[C@H](CCCNC(=N)N)NC(=O)[C@H](CO)NC(=O)[C@H](CCCCN)NC(=O)[C@@H]4CCCN4C(=O)[C@H]([C@@H](C)CC)NC(=O)[C@H]([C@@H](C)O)NC(=O)[C@H](CC(=O)O)NC(=O)[C@H]([C@@H](C)CC)NC(=O)[C@@H](NC(=O)[C@H](CO)NC(=O)[C@@H](N)CCCNC(=N)N)CSSC[C@@H](C(N)=O)NC(=O)[C@H]([C@@H](C)O)NC(=O)CNC3=O)C(=O)N[C@@H]([C@@H](C)O)C(=O)N[C@@H](C)C(=O)N[C@@H](Cc3ccccc3)C(=O)N[C@@H](CC(N)=O)C(=O)N2)NC(=O)[C@H](Cc2ccccc2)NC(=O)[C@H](CO)NC(=O)[C@H](CC(C)C)NC(=O)[C@H](CCCNC(=N)N)NC(=O)[C@H](Cc2ccc(O)cc2)NC(=O)[C@H](CCCCN)NC1=O [[Asn16,Nle21]ShK-amide]
[1]; [4]
  IC50: 1.07 nM
[2]
  IC50: 0.171 nM
[3]
  IC50: 0.689 nM

## CCCC[C@@H]1NC(=O)[C@H](CO)NC(=O)[C@H](Cc2c[nH]cn2)NC(=O)[C@H](CCCCN)NC(=O)[C@@H]2CSSC[C@@H]3NC(=O)[C@H]([C@@H](C)O)NC(=O)[C@H](CCCCN)NC(=O)[C@H](CCCNC(=N)N)NC(=O)[C@H](CSSC[C@H](NC(=O)[C@H](CCCNC(=N)N)NC(=O)[C@H](CO)NC(=O)[C@H](CCCCN)NC(=O)[C@@H]4CCCN4C(=O)[C@H]([C@@H](C)CC)NC(=O)[C@H]([C@@H](C)O)NC(=O)[C@H](CC(=O)O)NC(=O)[C@H]([C@@H](C)CC)NC(=O)[C@@H](NC(=O)[C@H](CO)NC(=O)[C@@H](N)CCCNC(=N)N)CSSC[C@@H](C(N)=O)NC(=O)[C@H]([C@@H](C)O)NC(=O)CNC3=O)C(=O)N[C@@H]([C@@H](C)O)C(=O)N[C@@H](C)C(=O)N[C@@H](C)C(=O)N[C@@H](CCCCN)C(=O)N2)NC(=O)[C@H](Cc2ccccc2)NC(=O)[C@H](CO)NC(=O)[C@H](CC(C)C)NC(=O)[C@H](CCCNC(=N)N)NC(=O)[C@H](Cc2ccc(O)cc2)NC(=O)[C@H](CCCCN)NC1=O [[Ala15, Lys16,Nle21]ShK-amide]
[1]; [4]
  IC50: 1.87 nM
[2]
  IC50: 0.127 nM
[3]
  IC50: 0.952 nM

## CC[C@H](C)[C@@H]1NC(=O)[C@@H](NC(=O)[C@H](CO)NC(=O)[C@@H](N)CCCNC(=N)N)CSSC[C@@H](C(N)=O)NC(=O)[C@H]([C@@H](C)O)NC(=O)CNC(=O)[C@@H]2CSSC[C@@H]3NC(=O)[C@H](CCCCN)NC(=O)[C@H](Cc4ccccc4)NC(=O)[C@H](C)NC(=O)[C@H]([C@@H](C)O)NC(=O)[C@H](CSSC[C@H](NC(=O)[C@H](Cc4ccccc4)NC(=O)[C@H](CO)NC(=O)[C@H](CC(C)C)NC(=O)[C@H](CCCNC(=N)N)NC(=O)[C@H](Cc4ccc(O)cc4)NC(=O)[C@H](CCCCN)NC(=O)[C@H](Cc4c[nH]c5ccccc45)NC(=O)[C@H](CO)NC(=O)[C@H](Cc4c[nH]cn4)NC(=O)[C@H](CCCCN)NC3=O)C(=O)N[C@@H](CCCNC(=N)N)C(=O)N[C@@H](CCCCN)C(=O)N[C@@H]([C@@H](C)O)C(=O)N2)NC(=O)[C@H](CCCNC(=N)N)NC(=O)[C@H](CO)NC(=O)[C@H](CCCCN)NC(=O)[C@@H]2CCCN2C(=O)[C@H]([C@@H](C)CC)NC(=O)[C@H]([C@@H](C)O)NC(=O)[C@H](CC(=O)O)NC1=O [[Lys16, Trp21]ShK-amide]
[1]; [4]
  IC50: 3.19 nM
[2]
  IC50: 0.782 nM
[3]
  IC50: 3.86 nM

## CC[C@H](C)[C@@H]1NC(=O)[C@@H](NC(=O)[C@H](CO)NC(=O)[C@@H](N)CCCNC(=N)N)CSSC[C@@H](C(=O)O)NC(=O)[C@H]([C@@H](C)O)NC(=O)CNC(=O)[C@@H]2CSSC[C@@H]3NC(=O)[C@H](CCC(N)=O)NC(=O)[C@H](Cc4ccccc4)NC(=O)[C@H](C)NC(=O)[C@H]([C@@H](C)O)NC(=O)[C@H](CSSC[C@H](NC(=O)[C@H](Cc4ccccc4)NC(=O)[C@H](CO)NC(=O)[C@H](CC(C)C)NC(=O)[C@H](CCCNC(=N)N)NC(=O)[C@H](Cc4ccc(O)cc4)NC(=O)[C@H](CCCCN)NC(=O)[C@H](CCCNC(=N)N)NC(=O)[C@H](CO)NC(=O)[C@H](Cc4c[nH]cn4)NC(=O)[C@H](CCCCN)NC3=O)C(=O)N[C@@H](CCCNC(=N)N)C(=O)N[C@@H](CCCCN)C(=O)N[C@@H]([C@@H](C)O)C(=O)N2)NC(=O)[C@H](CCCNC(=N)N)NC(=O)[C@H](CO)NC(=O)[C@H](CCCCN)NC(=O)[C@@H]2CCCN2C(=O)[C@H]([C@@H](C)CC)NC(=O)[C@H]([C@@H](C)O)NC(=O)[C@H](CC(=O)O)NC1=O [[Arg21]ShK]
[1]; [4]
  IC50: 4.66 nM
[2]
  IC50: 0.283 nM
[3]
  IC50: 1.76 nM

## CC[C@@H]1NC(=O)[C@H](CO)NC(=O)[C@H](Cc2c[nH]cn2)NC(=O)[C@H](CCCCN)NC(=O)[C@@H]2CSSC[C@@H]3NC(=O)[C@H]([C@@H](C)O)NC(=O)[C@H](CCCCN)NC(=O)[C@H](CCCNC(=N)N)NC(=O)[C@H](CSSC[C@H](NC(=O)[C@H](CCCNC(=N)N)NC(=O)[C@H](CO)NC(=O)[C@H](CCCCN)NC(=O)[C@@H]4CCCN4C(=O)[C@H]([C@@H](C)CC)NC(=O)[C@H]([C@@H](C)O)NC(=O)[C@H](CC(=O)O)NC(=O)[C@H](CCC(=O)O)NC(=O)[C@@H](NC(=O)[C@H](CO)NC(=O)[C@@H](N)CCCNC(=N)N)CSSC[C@@H](C(N)=O)NC(=O)[C@H]([C@@H](C)O)NC(=O)CNC3=O)C(=O)N[C@@H]([C@@H](C)O)C(=O)N[C@@H](C)C(=O)N[C@@H](Cc3ccccc3)C(=O)N[C@@H](CCCCN)C(=O)N2)NC(=O)[C@H](Cc2ccccc2)NC(=O)[C@H](CO)NC(=O)[C@H](CC(C)C)NC(=O)[C@H](CCCNC(=N)N)NC(=O)[C@H](Cc2ccc(O)cc2)NC(=O)[C@H](CCCCN)NC1=O [[Glu4, Lys16,Abu21]ShK-amide]
[1]; [4]
  IC50: 1.76 nM
[2]
  IC50: 0.33 nM
[3]
  IC50: 1.11 nM
